Laboratory results taken from patent EP2787001A1, “(E)-3-Aryl-3-oxoprop-1-enyl-2-phosphonic acid and its derivatives, methods for their preparation and their use” (Centrum Badan Molekularnych I Makromolekularnych Polskiej …, priority 2013, dated 2014).

Assays:
[1] = test system: DNA plasmid pcDNA 3.1 HisC (8.2 kb); assay: Digestion of plasmid DNA with restriction enzyme Bam H1 after incubation with compounds (agarose gel electrophoresis); assay type: biochemical; conditions: compound 2 or 20 µM, overnight incubation at 37°C, then BamH1 2U/sample for 3 hours at 37°C; gel not shown
Protocol: The impact of compounds 1a and 1b has been tested on the digestion of DNA plasmid pcDNA 3.1 HisC (8.2 kb) with restriction enzyme Bam H1.
1. For this purpose, pcDNA 3.1 HisC plasmid DNA (0.6 µg) was dissolved in 1×BamH1 buffer and incubated overnight at 37°C with the following reference or test compounds:
The concentration of the reference and test compounds in each sample was 2 or 20 µM.
2. After overnight incubation, the reaction mixture was digested with BamH1 restriction enzyme (2U/sample) for 3 hours at 37°C. The total volume of the samples was 10 µL.
3. The reaction products were applied on 1% agarose gel and electrophoresis was performed in TAE buffer.

[2] = test system: synthetic DNA duplex (23 nt- 5'TCTTCAAGAATTCAGGTCCTGAT 3'); assay: Circular dichroism (CD) spectra of DNA with test compounds; assay type: binding; conditions: DNA duplex 2µM, compound 20µM, 0.2% DMSO, PBS, 23°C, immediately after addition
Protocol: The ability of the test compounds 1a and 1b to interact with DNA was tested by the circular dichroism (CD) technique.
1. For this purpose, samples were prepared in PBS buffer containing: 2µM of synthetic DNA duplex (23 nt- 5'TCTTCAAGAATTCAGGTCCTGAT 3') or DNA of bovine thymus (0.2 mg/ml) and test compounds at a concentration of 20µM or 40µM for synthetic DNA duplex sample and thymus DNA sample, respectively. The samples contained 0.2% or 0.4% DMSO (for synthetic DNA duplex sample and thymus DNA sample, respectively), which is a solvent of the test compounds.
2. CD spectra (in the range from 200 nm to 320 nm) were recorded immediately after addition of the test compounds as well as after 1.5 h incubation. The measurement was carried out at 23°C in a quartz cuvette (optical path length 0.5 cm) using a spectroscope CD6 (Jobin-Yvon, France).
3. CD spectra of DNA incubated with the test compounds were compared with the control spectrum (spectrum was recorded for a sample of DNA (2µM or 0.2 mg/ml) in the presence of DMSO (final concentration of 0.2% or 0.4%).

SMILES	interaction with plasmid DNA: resistance to digestion by the endonucleolytic enzyme Bam H1 [1]	change of CD spectrum of duplex DNA compared to the control (duplex DNA + DMSO) [2]
COc1cccc2c1C(=O)c1c(O)c3c(c(O)c1C2=O)C[C@@](O)(C(C)=O)C[C@@H]3O[C@H]1C[C@H](N)[C@H](O)[C@H](C)O1 [Daunorubicin, reference compound]	increasing its resistance to digestion	changing significantly its structure
O=C(/C(=C/c1ccc2ccc3cccc4ccc1c2c34)P(=O)(O)O)c1ccc2c(c1)OCO2 [Compound 1b, (Z)-3-(benzo[d][1,3]dioxol-5-yl)-1-(pyrene-1-yl)-3-oxoprop-1-en-2-ylphosphonic acid]	increasing its resistance to digestion	changes compared to the control sample
COP(=O)(OC)/C(=C/c1ccc2ccc3cccc4ccc1c2c34)C(=O)c1ccc2c(c1)OCO2 [Compound 1a]	increasing its resistance to digestion	changes compared to the control sample
